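1) Cells in 96-well plates. 2) Compound, 48 h, 5 concentrations. 3) Linear interpolation between surrounding doses. 4) Unreached endpoint = highest concentration. GI50: concentration for 50% inhibition of growth.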 Calls of active or inactive are those of the source. No stated cut-off is given here; in the data, active = GI50 up to about 1.1 µM and inactive = higher.
Columns and labels:
Assay in all cases: NCI-60 cell line screen, 48 h
UO-31 = tested on: UO-31
OVCAR-4 = tested on: OVCAR-4
SF-539 = tested on: SF-539
SF-268 = tested on: SF-268
RPMI-8226 = tested on: RPMI-8226
SK-MEL-28 = tested on: SK-MEL-28
HT-29 = tested on: HT-29
K562 = tested on: K562
LOX IMVI = tested on: LOX IMVI
SF-295 = tested on: SF-295
HCT-15 = tested on: HCT-15
786-0 = tested on: 786-0
Malme-3M = tested on: Malme-3M
HCC 2998 = tested on: HCC 2998
HOP-62 = tested on: HOP-62
OVCAR-3 = tested on: OVCAR-3
A498 = tested on: A498
SR = tested on: SR
UACC-257 = tested on: UACC-257

Row | Compound | GI50 (UO-31) | GI50 (OVCAR-4) | GI50 (SF-539) | GI50 (SF-268) | GI50 (RPMI-8226) | GI50 (SK-MEL-28) | GI50 (HT-29) | GI50 (K562) | GI50 (LOX IMVI) | GI50 (SF-295) | GI50 (HCT-15) [µM] | GI50 (786-0) | GI50 (Malme-3M) | GI50 (HCC 2998) | GI50 (HOP-62) | GI50 (OVCAR-3) | GI50 (A498) | GI50 (SR) | GI50 (UACC-257)
1 | COc1ccc(/C=C2\N=C(SC)NC2=O)cc1 | 21.2 µM (inactive) | 71.1 µM (inactive) | 80.7 µM (inactive) | 58.6 µM (inactive) | 61.8 µM (inactive) | > 100 µM (inactive) | > 100 µM (inactive) | > 10 µM (inactive) | > 100 µM (inactive) | > 100 µM (inactive) | 89.7 | > 100 µM (inactive) | > 100 µM (inactive) | > 100 µM (inactive) | > 100 µM (inactive) | > 100 µM (inactive) |  |  | 
2 | O=C1c2cc([N+](=O)[O-])ccc2-c2ccc3c4ccc5c6c(ccc(c7ccc1c2c73)c64)C(=O)c1cc([N+](=O)[O-])ccc1-5 | > 100 µM (inactive) | > 100 µM (inactive) |  | > 100 µM (inactive) | > 100 µM (inactive) | > 100 µM (inactive) | > 100 µM (inactive) | > 100 µM (inactive) | > 100 µM (inactive) | > 100 µM (inactive) | > 100 | > 100 µM (inactive) | > 100 µM (inactive) |  | > 100 µM (inactive) | > 100 µM (inactive) | 4.03 µM (inactive) | > 100 µM (inactive) | > 100 µM (inactive)
3 | NC(=O)c1csc(-c2ccc(CO)o2)n1 | > 100 µM (inactive) | > 100 µM (inactive) | > 100 µM (inactive) | > 100 µM (inactive) | > 100 µM (inactive) | > 100 µM (inactive) | > 100 µM (inactive) | > 100 µM (inactive) | > 100 µM (inactive) | > 100 µM (inactive) | > 100 | > 100 µM (inactive) | > 100 µM (inactive) |  |  | > 100 µM (inactive) | > 100 µM (inactive) | > 100 µM (inactive) | > 100 µM (inactive)
4 | C/C(=N\Nc1nc2ccccc2s1)c1ccc2ccccc2n1 | 53.7 µM (inactive) | 11.2 µM (inactive) | 58.7 µM (inactive) | 28.8 µM (inactive) | 18.5 µM (inactive) | > 100 µM (inactive) | 85.9 µM (inactive) |  | > 100 µM (inactive) | > 100 µM (inactive) | > 100 | > 100 µM (inactive) | 58.6 µM (inactive) |  | > 100 µM (inactive) | 34.8 µM (inactive) | > 100 µM (inactive) | 2 µM (inactive) | > 100 µM (inactive)
5 | N#CC1=C2Sc3ccccc3N2[C@H](c2ccccc2)[C@H]2COC(=O)[C@@H]12 | > 100 µM (inactive) | > 100 µM (inactive) | > 100 µM (inactive) | 17.1 µM (inactive) | 22.6 µM (inactive) | > 100 µM (inactive) |  |  | 26.3 µM (inactive) | > 100 µM (inactive) | > 100 | > 100 µM (inactive) | 16.7 µM (inactive) | > 100 µM (inactive) | > 100 µM (inactive) | > 100 µM (inactive) | 54.8 µM (inactive) |  | > 100 µM (inactive)
6 | COc1cc2oc(-c3ccc4c(c3)OCO4)c(OC)c(=O)c2c(OC)c1O | 53 µM (inactive) | 59.3 µM (inactive) | > 100 µM (inactive) | 27.9 µM (inactive) |  | > 100 µM (inactive) | > 100 µM (inactive) | 34.4 µM (inactive) | 32.7 µM (inactive) | 41.7 µM (inactive) | 78.7 | 10.9 µM (inactive) | > 100 µM (inactive) | 70.5 µM (inactive) | 57.4 µM (inactive) | 44.2 µM (inactive) | 45.4 µM (inactive) |  | > 100 µM (inactive)
7 | O=C(Cn1c2c(c3ccccc31)CCCC2)N1CCOCC1 | 25.9 µM (inactive) | 44.4 µM (inactive) | > 100 µM (inactive) | > 100 µM (inactive) | > 100 µM (inactive) |  | > 100 µM (inactive) | > 100 µM (inactive) | > 100 µM (inactive) | > 100 µM (inactive) | > 100 | > 100 µM (inactive) | > 100 µM (inactive) | > 100 µM (inactive) | > 100 µM (inactive) | > 100 µM (inactive) | > 100 µM (inactive) |  | > 100 µM (inactive)
8 | O=C(N[C@@H](c1ccccc1)[C@@H](O)C(=O)OCc1ccc([N+](=O)[O-])cc1)c1ccccc1 | 65.5 µM (inactive) | > 100 µM (inactive) | > 100 µM (inactive) | > 100 µM (inactive) |  |  | > 100 µM (inactive) | 51.3 µM (inactive) | > 100 µM (inactive) | > 10 µM (inactive) | > 100 | > 100 µM (inactive) | > 100 µM (inactive) | > 100 µM (inactive) | > 100 µM (inactive) | > 100 µM (inactive) | > 100 µM (inactive) |  | > 100 µM (inactive)
9 | Cc1ccc(N2CCN(CCC(=O)O)CC2)cc1 | > 100 µM (inactive) | > 100 µM (inactive) | > 100 µM (inactive) | > 100 µM (inactive) | > 100 µM (inactive) | > 100 µM (inactive) | > 100 µM (inactive) | 2.94 µM (inactive) | > 100 µM (inactive) | > 100 µM (inactive) | > 100 | > 100 µM (inactive) | > 100 µM (inactive) |  | > 100 µM (inactive) | > 100 µM (inactive) | > 100 µM (inactive) | 16.9 µM (inactive) | > 100 µM (inactive)
10 | COc1ccccc1/C=C\C(=O)C1COCN1 (stereo not given) | 16.4 µM (inactive) | 16.3 µM (inactive) | 20.5 µM (inactive) | 21 µM (inactive) | 2.24 µM (inactive) | 18 µM (inactive) | 6.35 µM (inactive) | 6.98 µM (inactive) | 4.83 µM (inactive) | 26.1 µM (inactive) | 14.7 | 23.9 µM (inactive) | 19.3 µM (inactive) |  | 21.4 µM (inactive) | 8.24 µM (inactive) |  | 1.95 µM (inactive) | 18.1 µM (inactive)
11 | Clc1ccc(C2ON=C(c3ccccc3)N2C23CC4CC(CC(C4)C2)C3)cc1Cl (stereo not given) | > 10 µM (inactive) | > 10 µM (inactive) | > 10 µM (inactive) | > 10 µM (inactive) | > 10 µM (inactive) | 7.93 µM (inactive) | > 10 µM (inactive) | > 10 µM (inactive) | > 10 µM (inactive) | > 10 µM (inactive) | > 10 | > 10 µM (inactive) | > 10 µM (inactive) | > 10 µM (inactive) | > 10 µM (inactive) | > 10 µM (inactive) | > 10 µM (inactive) |  | > 10 µM (inactive)
12 | O=c1c(-c2ccccc2Cl)coc2cc(F)ccc12 | 20.4 µM (inactive) | > 100 µM (inactive) | 11.9 µM (inactive) | 40.7 µM (inactive) |  | 63.5 µM (inactive) | 22.5 µM (inactive) |  | 13.2 µM (inactive) | 19.4 µM (inactive) | 31.8 | 30.4 µM (inactive) |  |  | 22.2 µM (inactive) | 30.7 µM (inactive) | 7.67 µM (inactive) |  | 23.9 µM (inactive)
13 | CC/C=C/C(/C=C/C[C@]1(CC)C[C@H](CC)[C@H](CC(=O)O)OO1)CC (stereo not given in full) | 0.494 µM (active) | 1.52 µM (inactive) | 1.82 µM (inactive) | 3.58 µM (inactive) | 1.64 µM (inactive) | 2.23 µM (inactive) | 1.84 µM (inactive) | 3.04 µM (inactive) | 0.33 µM (active) | 2.16 µM (inactive) | 2.61 | 1.67 µM (inactive) | 12.4 µM (inactive) |  | 1.58 µM (inactive) | 2 µM (inactive) | 14.3 µM (inactive) | 0.421 µM (active) | 14.5 µM (inactive)
14 | NC(=O)c1cc2ccccc2o/c1=N/O | 38.7 µM (inactive) |  | > 100 µM (inactive) | > 100 µM (inactive) | > 100 µM (inactive) | > 100 µM (inactive) | > 100 µM (inactive) | > 100 µM (inactive) | > 100 µM (inactive) | > 100 µM (inactive) | > 100 | > 100 µM (inactive) |  | > 100 µM (inactive) | > 100 µM (inactive) | > 100 µM (inactive) |  | > 100 µM (inactive) | > 100 µM (inactive)
15 | Nc1ccccc1.O=C(O)C(C(F)(F)F)C(F)(F)F | > 100 µM (inactive) | > 100 µM (inactive) | > 100 µM (inactive) | > 100 µM (inactive) | > 100 µM (inactive) | > 100 µM (inactive) | > 100 µM (inactive) | > 100 µM (inactive) | > 100 µM (inactive) | > 100 µM (inactive) | 14.9 | > 100 µM (inactive) | > 100 µM (inactive) |  | > 100 µM (inactive) | > 100 µM (inactive) | > 100 µM (inactive) | > 100 µM (inactive) | > 100 µM (inactive)
16 | O=c1[nH]nc(Cc2ccccc2)n1/N=C/c1ccccc1O | > 100 µM (inactive) | > 100 µM (inactive) | > 100 µM (inactive) | 50.1 µM (inactive) | > 100 µM (inactive) | > 100 µM (inactive) | > 100 µM (inactive) | > 100 µM (inactive) | > 100 µM (inactive) | 57.7 µM (inactive) | > 100 | 41.5 µM (inactive) | > 100 µM (inactive) | > 100 µM (inactive) | 25.9 µM (inactive) | > 100 µM (inactive) | > 100 µM (inactive) |  | > 100 µM (inactive)
17 | C[n+]1c(-c2ccc(/C=N/N=C/c3ccc(-c4cn5ccccc5[n+]4C)cc3)cc2)cn2ccccc21 | > 100 µM (inactive) | > 100 µM (inactive) | > 100 µM (inactive) | > 100 µM (inactive) | > 100 µM (inactive) | > 100 µM (inactive) | > 100 µM (inactive) | > 100 µM (inactive) |  | > 100 µM (inactive) | > 100 | > 100 µM (inactive) |  | > 100 µM (inactive) | > 100 µM (inactive) |  |  | > 100 µM (inactive) | > 100 µM (inactive)
